Measured values as given in ChEMBL document CHEMBL1201862, “PubChem BioAssay data set” (2004).
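Five compound concentrations were applied to cells in 96-well plates for 48 hours; endpoints were derived by simple linear interpolation of the resulting dose-response curve. GI50 marks 50% less growth.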 Calls of active or inactive are those of the source. No stated cut-off is given here; in the data, active = GI50 up to about 1.1 µM and inactive = higher.

Legend:
Experiment in all cases: NCI-60 cell line screen, 48 h
OVCAR-8 = tested on: OVCAR-8
A498 = tested on: A498
SF-539 = tested on: SF-539
MDA-MB-231 = tested on: MDA-MB-231
UACC-62 = tested on: UACC-62
HCC 2998 = tested on: HCC 2998
UACC-257 = tested on: UACC-257
CCRF-CEM = tested on: CCRF-CEM
LOX IMVI = tested on: LOX IMVI
HCT-116 = tested on: HCT-116
SK-MEL-5 = tested on: SK-MEL-5
SF-268 = tested on: SF-268
HT-29 = tested on: HT-29
TK-10 = tested on: TK-10
KM12 = tested on: KM12
T47D = tested on: T47D
NCI-H522 = tested on: NCI-H522
SK-OV-3 = tested on: SK-OV-3
IGROV-1 = tested on: IGROV-1
HCT-15 = tested on: HCT-15
OVCAR-4 = tested on: OVCAR-4
CAKI-1 = tested on: CAKI-1
MCF7 = tested on: MCF7
SF-295 = tested on: SF-295
BT-549 = tested on: BT-549
NCI-H23 = tested on: NCI-H23
RPMI-8226 = tested on: RPMI-8226
Hs-578T = tested on: Hs-578T
NCI-H226 = tested on: NCI-H226
UO-31 = tested on: UO-31
NCI-H460 = tested on: NCI-H460
RXF 393 = tested on: RXF 393
K562 = tested on: K562
SW-620 = tested on: SW-620
HOP-62 = tested on: HOP-62
MDA-MB-435 = tested on: MDA-MB-435
COLO 205 = tested on: COLO 205
SR = tested on: SR
U-251 = tested on: U-251
HL-60 = tested on: HL-60
EKVX = tested on: EKVX
SK-MEL-28 = tested on: SK-MEL-28
OVCAR-3 = tested on: OVCAR-3
DU-145 = tested on: DU-145
OVCAR-5 = tested on: OVCAR-5
ACHN = tested on: ACHN
SNB-75 = tested on: SNB-75
NCI/ADR-RES = tested on: NCI/ADR-RES
MOLT-4 = tested on: MOLT-4
HOP-92 = tested on: HOP-92
786-0 = tested on: 786-0
Malme-3M = tested on: Malme-3M
A549 = tested on: A549
M14 = tested on: M14
SK-MEL-2 = tested on: SK-MEL-2
SNB-19 = tested on: SNB-19
SN12C = tested on: SN12C
PC-3 = tested on: PC-3

Measured: GI50

COc1ccc(CNc2nc3ccccc3nc2-c2cccs2)cc1
35.4 µM: HCT-15
inactive: OVCAR-8 28.9 µM | A498 29.4 µM | SF-539 > 100 µM | MDA-MB-231 23.6 µM | UACC-62 38.4 µM | HCC 2998 45.6 µM | UACC-257 31.2 µM | CCRF-CEM 25.9 µM | LOX IMVI 12.2 µM | HCT-116 26.7 µM | SK-MEL-5 23.8 µM | SF-268 > 100 µM | HT-29 18.9 µM | TK-10 94.2 µM | KM12 28.9 µM | T47D 22.9 µM | NCI-H522 23.5 µM | SK-OV-3 43.4 µM | IGROV-1 68.9 µM | OVCAR-4 29.9 µM | CAKI-1 15.1 µM | MCF7 28.3 µM | SF-295 46.7 µM | BT-549 22.1 µM | NCI-H23 62.4 µM | RPMI-8226 21.5 µM | Hs-578T 23.4 µM | NCI-H226 > 100 µM | UO-31 15.4 µM | NCI-H460 24.2 µM | RXF 393 23.8 µM | K562 23.6 µM | SW-620 51.9 µM | HOP-62 > 100 µM | MDA-MB-435 27.4 µM | COLO 205 38.1 µM | SR 15.6 µM | U-251 28.8 µM | HL-60 61.7 µM | EKVX 97.9 µM | SK-MEL-28 > 100 µM | OVCAR-3 37.4 µM | DU-145 > 100 µM | OVCAR-5 > 100 µM | ACHN 57.5 µM | SNB-75 > 100 µM | NCI/ADR-RES 17.4 µM | MOLT-4 5.31 µM | HOP-92 16.6 µM | 786-0 43.9 µM | Malme-3M 50.1 µM | A549 33.1 µM

CCOC(=O)/C(=N/Nc1ccccc1)N1C(=S)N(C)N=C(C)C=C1S
inactive: OVCAR-8 > 100 µM | SF-539 > 100 µM | MDA-MB-231 43.9 µM | UACC-62 83.4 µM | HCC 2998 > 100 µM | UACC-257 > 100 µM | CCRF-CEM > 100 µM | HCT-116 > 100 µM | SK-MEL-5 > 100 µM | SF-268 6.82 µM | HT-29 > 100 µM | TK-10 86.1 µM | KM12 > 100 µM | T47D 44.2 µM | NCI-H522 27 µM | SK-OV-3 > 100 µM | IGROV-1 > 100 µM | OVCAR-4 > 100 µM | CAKI-1 > 100 µM | MCF7 > 100 µM | SF-295 28.4 µM | BT-549 76.9 µM | NCI-H23 33.9 µM | RPMI-8226 > 100 µM | Hs-578T 70 µM | UO-31 > 100 µM | NCI-H460 > 100 µM | K562 > 100 µM | SW-620 > 100 µM | MDA-MB-435 > 100 µM | COLO 205 > 100 µM | SR > 100 µM | U-251 20 µM | HL-60 > 100 µM | EKVX > 100 µM | M14 > 100 µM | SK-MEL-2 > 100 µM | SK-MEL-28 > 100 µM | OVCAR-3 > 100 µM | SNB-19 > 100 µM | DU-145 > 100 µM | OVCAR-5 > 100 µM | ACHN > 100 µM | SN12C > 100 µM | SNB-75 10 µM | NCI/ADR-RES > 100 µM | MOLT-4 > 100 µM | HOP-92 47.8 µM | A549 > 100 µM
active: RXF 393 0.465 µM
> 100 µM: HCT-15

COc1cccc(Nc2nc(-c3cccs3)nc3ccc(Br)cc23)c1
active: CCRF-CEM 0.0101 µM
> 100 µM: HCT-15
inactive: OVCAR-8 39.2 µM | A498 > 100 µM | SF-539 94.2 µM | MDA-MB-231 37.8 µM | UACC-62 66.2 µM | UACC-257 > 100 µM | LOX IMVI > 100 µM | HCT-116 50.5 µM | SK-MEL-5 55.5 µM | SF-268 41.8 µM | HT-29 > 100 µM | TK-10 36.7 µM | KM12 74 µM | T47D > 100 µM | NCI-H522 > 100 µM | SK-OV-3 70 µM | IGROV-1 > 100 µM | CAKI-1 33.7 µM | MCF7 12.7 µM | SF-295 36.6 µM | BT-549 > 100 µM | NCI-H23 46 µM | RPMI-8226 1.67 µM | Hs-578T > 100 µM | NCI-H226 78 µM | UO-31 > 100 µM | NCI-H460 25.6 µM | PC-3 27.4 µM | K562 > 100 µM | SW-620 > 100 µM | HOP-62 20 µM | MDA-MB-435 76 µM | COLO 205 > 100 µM | SR 1.48 µM | U-251 35.5 µM | HL-60 > 100 µM | EKVX > 100 µM | M14 > 100 µM | SK-MEL-2 > 100 µM | OVCAR-3 36.6 µM | SNB-19 25.5 µM | DU-145 > 100 µM | OVCAR-5 95.3 µM | ACHN > 100 µM | SN12C > 100 µM | NCI/ADR-RES 40.5 µM | HOP-92 31.4 µM | 786-0 33.3 µM | Malme-3M 72.9 µM | A549 76.4 µM
